Laboratory results: article PMC12410356 (International Journal for Parasitology: Drugs and Drug …, 2025)

Key:
[1] = test system: E. multilocularis metacestode vesicles; assay: Phosphoglucose isomerase (PGI) release assay (damage-marker release) on metacestode vesicles; type: cell-based, Echinococcus multilocularis; conditions: overview screen, 10 μM, singlets, relative to 0.1 % Triton X-100, DMSO subtracted; for PGI d5 (relative PGI release): 5 days; for PGI d12 (relative PGI release): 12 days
Experimental: In order to quantify the drug-induced damage on whole metacestode vesicles, phosphoglucose isomerase (PGI) assay was performed as described previously ([Stadelmann et al., 2010]) with few adaptations published recently ([Kaethner et al., 2023]). In short, 8 to 12 weeks-old metacestode vesicles were purified using 2 % sucrose with subsequent washes in PBS. Metacestode vesicles were diluted in two volumes of DMEM without phenol red containing penicillin (100 U/mL) and streptomycin (100 μg/mL). […] 0.1 % DMSO was used as a negative solvent control and 0.1 % Triton X-100 was used as a positive total damage control. Metacestode vesicles were incubated under a humid, 5 % CO2 atmosphere at 37 °C. After five and twelve days, supernatant was taken and pictures were made using a Nikon SMZ18 stereo microscope (Nikon, Basel, Switzerland) at 7.5 × magnification. PGI activity in the supernatants was measured on a HIDEX Sense microplate reader (Hidex, Turku, Finland). The corresponding values of the DMSO controls were subtracted from the values of the compounds and then PGI activity was calculated relative to 0.1 % Triton X-100. […] IC50 values were calculated applying the 3 parameter Weibull type 1 in R for each of the three independent experiments ([Ritler et al., 2020]).

[2] = test system: E. multilocularis metacestode vesicles; assay: Metacestode vesicle viability assay (ATP, CellTiter-Glo); type: cell-based, Echinococcus multilocularis; conditions: overview screen, 10 μM, singlets, 12 days, relative to DMSO control
Experimental: Viability was assessed after 12 days using the same metacestode vesicles as for the PGI release assay. Triton X-100 was added to each well to a final concentration of 0.1 %. Subsequently the metacestode vesicles were broken mechanically and 50 μL of the supernatant was mixed with 50 μL of CellTiter-Glo® buffer (Promega, Dübendorf, Switzerland). Measurements were performed on a HIDEX Sense microplate reader.

Structure (SMILES)	PGI d5 (relative PGI release) [1] [%]	PGI d12 (relative PGI release) [1] [%]	Viability d12 (relative viability) [2] [%]
CCCCCc1ccc(C(=O)NCCn2cc(CCCCCc3c[nH]c(N)n3)nn2)cc1.Cl [MMV1580847]	2.795	5.023	106.136
O=C(Cn1cnc2ccccc2c1=O)Nc1ccccc1 [MMV1578891]	-0.325	-3.282	139.913
CCNC(=O)Nc1cc2c(-c3ccnc(C)c3)ccc(CNC(=O)OC)c2cn1 [MMV1634390]	1.116	-26.1278	29.4745
CC(C)=CCC/C(C)=C\CNCCNC1C2CC3CC(C2)CC1C3 (stereo not drawn) [MMV687273]	0.6754	-4.6575	47.5933
CCNC(=O)Nc1cc(-c2ccccc2)c(-c2cncc(C(=O)O)c2)cn1 [MMV1593534]	-2.168	-24.3929	81.2426
Cc1ncc([N+](=O)[O-])n1CC(O)CN1CCOCC1 (stereo not drawn) [MMV1613562]	0.195	-6.037	97.4765
O=C(O)c1ccc(-n2nc(-c3ccccc3O)nc2-c2ccccc2O)cc1 [MMV640014]	-1.416	-24.5374	145.619
O=C(Nc1nnc(-c2ccc(Cl)cc2)o1)c1nc2ccccc2s1 [MMV102833]	3.0788	1.422	141.762
Cc1c[nH]c(=O)nc1NCc1ccccc1 [MMV1582489]	-0.6323	-1.8719	140.789
O=C1c2cccc3cccc(c23)C(=O)N1CC1CO1 (stereo not drawn) [MMV1634360]	-2.544	17.7299	25.8841
CCc1cc(CCC(=O)Nc2ccccc2O)c(=O)[nH]c1C [MMV1782106]	1.217	-17.9747	488.194
CC(C)(C)c1cc(CCC(=O)N2CCC2)cc(C(C)(C)C)c1O [MMV1229204]	-1.987	-10.8726	39.6611
NCC(=O)Nc1ccc(-n2nc(C(F)(F)F)cc2-c2ccc3c(ccc4ccccc43)c2)cc1 [MMV1578560]	3.295	35.9177	75.9823
CCN1CCN(Cc2nc3ccc([N+](=O)[O-])cc3c(=O)n2-c2ccccc2F)CC1 [MMV275100]	0.006823	-0.1551	107.175
CN(O)C(=O)c1cc2c(CN3CCC[C@H]3C(N)=O)cn(Cc3ccc(F)cc3)c2cn1 [MMV1782386]	0.7573	-1.18	103.448
Cl.NC1(C(=O)O)CCP(=O)(O)CC1 (stereo not drawn) [MMV1593538]	-1.639	-13.1352	39.7446
O=S(=O)(Nc1ccc(-n2cccc2)cc1)c1ccc(Cl)c(Cl)c1 [MMV1505642]	-0.09064	-9.692	76.9008
O[C@@](Cn1cnnn1)(c1ccc(F)cc1F)C(F)(F)c1ccc(-c2ccc(OCC(F)(F)F)cc2)cn1 [MMV1634386]	-2.798	-27.2627	107.711
COc1c(F)c(F)cc2c(=O)c(C(=O)O)cn(C3CC3)c12 [MMV1480967]	0.2423	-3.0894	115.193
Cc1ccccc1NC(=O)Nc1cccc([N+](=O)[O-])c1 [MMV1581029]	1.329	-16.6439	89.4166
